# From patent US20230338391A1, “TREATMENT FOR DEPRESSION” (TAKEDA PHARMACEUTICAL COMPANY LIMITED, priority 2020, published 2023)
# Like-named read-outs stand apart in the source and are kept apart here.
# Test: Phase 1 single-rising dose (SRD, Part 1) plasma PK in healthy subjects
# Assay type: in vivo, human
# Conditions: for Vd/F / AUC(0-inf) / Cmax / Tmax / AUC(0-t): both sexes, human, plasma; for Tmax: po
# Procedure: The study was designed to assess the safety, tolerability, PK, and PD of COMPOUND A. A total of 88 subjects were enrolled in 6 SRD and 5 SRD/MRD cohorts (n=8 per cohort). The study was composed of 2 parts.
# In Part 1 of the study (SRD cohorts), a single oral tablet dose of COMPOUND A (0.3, 1, 3, 5, 9, or 18 mg) or matching placebo was administered on Day 1 followed by safety, tolerability, PK, and PD assessments. In each SRD cohort of 8 subjects (6 active: 2 placebo), sentinel dosing was used whereby 2 initial subjects (1 active: 1 placebo) were administered study drug to evaluate safety and tolerability before dosing in the remaining subjects (5 active: 1 placebo) after an interval of at least 24 hours. Dosing in the remaining 6 subjects from each cohort was staggered such that only 3 subjects were dosed in 1 day, with the last 3 subjects being dosed after an additional 24-hour interval. The data from each cohort were reviewed sequentially to ensure adequate safety and tolerability before administering the next dose level. Study drug was administered after an overnight fast of at least 10 hours. Subjects were confined in the study unit for 5 days, from Check-in on Day −1 until approximately 96 hours after dosing. Subjects in Cohorts 1 to 5 (0.3-9 mg) returned to the clinic on Days 6 and 7 and subjects in Cohort 6 (18 mg) returned on Days 6, 7 and 8 for additional PK blood sample collections. To allow for a preliminary assessment of the effect of food on the PK of COMPOUND A, subjects in SRD Cohort 3 (3 mg) returned to the clinic to receive study drug under fed conditions (standard high-fat meal, as defined by the Food and Drug Administration (“FDA”)), after the safety and tolerability of the higher dose (5 mg) under fasted conditions had been established.
# For all cohorts in Parts 1 and 2, serial PK blood samples were collected pre- and post-dose on Day 1 to measure plasma concentrations of COMPOUND A and its metabolites. For all SRD/MRD cohorts in Part 2, urine samples were collected pre- and post-dose on Day 1 and post-dose on Day 18 to measure concentrations of COMPOUND A and its metabolites.
# For Part 1 of the study, all 36 subjects who received COMPOUND A were included in the PK set. For Part 2 of the study, all 30 subjects who received COMPOUND A were included in the PK set.
# Referring now to FIG. 2, mean plasma concentration-time profiles (linear and semilog scales) of COMPOUND A were determined following single oral administration of COMPOUND A.
# [1] = single oral 0.3 mg, mean, N = 6
smiles,measurement,setting,value
"CC1=CN2CCS(=O)(=O)N=C2C(c2ccc(OC3CCCCC3)cc2)=N1 [COMPOUND A, 9-[4-(Cyclohexyloxy)phenyl]-7-methyl-3,4-dihydropyrazino[2,1-c][1,2,4]thiadiazine 2,2-dioxide]",Vd/F,"oral, range across single dose levels, read-out: mean Vz/F",95.1 to 133 L
same,AUC(0-inf),"oral, range across the 0.3 to 18 mg single dose range, read-out: mean AUC∞",148 to 8880 ng·h/mL
same,Cmax,"oral, range across the 0.3 to 18 mg single dose range, read-out: mean plasma Cmax",3.63 to 126 ng/mL
same,Tmax,"0.3 mg, single oral 0.3 mg, median, N = 6, read-out: tmax",1.25 h
same,Tmax,"1 mg, single oral 1 mg, median, N = 6, read-out: tmax",2.5 h
same,Tmax,"3 mg, single oral 3 mg, median, N = 6, read-out: tmax",1.75 h
same,Tmax,"5 mg, single oral 5 mg, median, N = 6, read-out: tmax",2.75 h
same,Tmax,"9 mg, single oral 9 mg, median, N = 6, read-out: tmax",5.5 h
same,Tmax,"18 mg, range across single oral doses 0.3, 1, 3, 5, 9, 18 mg, read-out: median tmax",1.25 to 5.5 h
same,Tmax,"18 mg, single oral 18 mg, median, N = 6, read-out: tmax",5.05 h
same,AUC(0-t),[1],126 ng·h/mL
same,AUC(0-inf),"single oral 0.3 mg, mean, N = 6, read-out: AUC∞",148 ng·h/mL
same,Cmax,"single oral 0.3 mg, mean, N = 6, read-out: Cmax",3.63 ng/mL
same,Vd/F,"single oral 0.3 mg, mean, N = 6, read-out: Vz/F",98.8 L
same,AUC(0-t),"single oral 1 mg, mean, N = 6",565 ng·h/mL
same,AUC(0-inf),"single oral 1 mg, mean, N = 6, read-out: AUC∞",642 ng·h/mL
same,Cmax,"single oral 1 mg, mean, N = 6, read-out: Cmax",10.3 ng/mL
same,Vd/F,"single oral 1 mg, mean, N = 6, read-out: Vz/F",95.1 L
same,AUC(0-t),"single oral 3 mg, mean, N = 6",1340 ng·h/mL
same,AUC(0-inf),"single oral 3 mg, mean, N = 6, read-out: AUC∞",1460 ng·h/mL
same,Cmax,"single oral 3 mg, mean, N = 6, read-out: Cmax",27.1 ng/mL
same,Vd/F,"single oral 3 mg, mean, N = 6, read-out: Vz/F",114 L
same,AUC(0-t),"single oral 5 mg, mean, N = 6",2320 ng·h/mL
same,AUC(0-inf),"single oral 5 mg, mean, N = 6, read-out: AUC∞",2650 ng·h/mL
same,Cmax,"single oral 5 mg, mean, N = 6, read-out: Cmax",45.3 ng/mL
same,Vd/F,"single oral 5 mg, mean, N = 6, read-out: Vz/F",115 L
same,AUC(0-t),"single oral 9 mg, mean, N = 6",4490 ng·h/mL
same,AUC(0-inf),"single oral 9 mg, mean, N = 6, read-out: AUC∞",5380 ng·h/mL
same,Cmax,"single oral 9 mg, mean, N = 6, read-out: Cmax",69.5 ng/mL
same,Vd/F,"single oral 9 mg, mean, N = 6, read-out: Vz/F",120 L
same,AUC(0-t),"single oral 18 mg, mean, N = 6",8080 ng·h/mL
same,AUC(0-inf),"single oral 18 mg, mean, N = 6, read-out: AUC∞",8880 ng·h/mL
same,Cmax,"single oral 18 mg, mean, N = 6, read-out: Cmax",126 ng/mL
same,Vd/F,"single oral 18 mg, mean, N = 6, read-out: Vz/F",133 L
same,CL/F,[1],2.17 L/h
same,t1/2z,[1],33.1 h
same,CL/F,"single oral 1 mg, mean, N = 6",1.79 L/h
same,t1/2z,"single oral 1 mg, mean, N = 6",41.3 h
same,CL/F,"single oral 3 mg, mean, N = 6",2.18 L/h
same,t1/2z,"single oral 3 mg, mean, N = 6",37.9 h
same,CL/F,"single oral 5 mg, mean, N = 6",2.08 L/h
same,t1/2z,"single oral 5 mg, mean, N = 6",42.5 h
same,CL/F,"single oral 9 mg, mean, N = 6",1.98 L/h
same,t1/2z,"single oral 9 mg, mean, N = 6",47.8 h
same,CL/F,"single oral 18 mg, mean, N = 6",2.29 L/h
same,t1/2z,"single oral 18 mg, mean, N = 6",44.1 h
